Biological target: T1, butyric acid olfactory receptor OR51E1 (Homo sapiens, UniProt Q8TCB6)
T1 construct: expressed in transfected cells
T1 sequence (Q8TCB6 1-318): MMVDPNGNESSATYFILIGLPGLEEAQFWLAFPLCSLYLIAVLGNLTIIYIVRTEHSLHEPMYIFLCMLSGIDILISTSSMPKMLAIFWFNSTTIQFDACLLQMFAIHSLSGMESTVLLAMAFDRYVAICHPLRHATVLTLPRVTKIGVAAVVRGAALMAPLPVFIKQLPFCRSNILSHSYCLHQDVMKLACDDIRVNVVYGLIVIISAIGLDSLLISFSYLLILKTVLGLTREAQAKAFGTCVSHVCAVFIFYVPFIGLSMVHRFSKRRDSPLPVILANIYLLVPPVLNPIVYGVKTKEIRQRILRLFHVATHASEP
Test: Inhibitory dose-response assay in a cell line expressing the OR51E1 olfactory receptor, in the presence of butyric acid (EC87)
Assay type: cell-based
Conditions: maximum % inhibition of butyric acid (EC87) induced OR51E1 activity, normalized to baseline agonist activity

| Structure (SMILES) | Inhibition (%) |
| --- | --- |
| CC(=NO)C1C(C)C(C)[C@@]23CC[C@H](CC12)C3 (some centres unmarked) [~{N}-[1[(1~{S},7~{R})-2,3-dimethyl-4-tricyclo[5.2.1.0^1,5]decanyl]ethylidene]hydroxylamine] | 19 |
| CC1CC(C)(C=NO)C2C[C@H]3CC[C@]12C3 (some centres unmarked) [~{N}-[[(1~{S},7~{R})-2,4-dimethyl-4-tricyclo[5.2.1.0^1,5]decanyl]methylidene]hydroxylamine] | 38 |

Source: US11168283B2, “Malodor counteracting ingredients” (Firmenich SA, priority 2017, dated 2021)
